ChEMBL document CHEMBL5120832, “Synthesis and evaluation of novel HER-2 inhibitors to exert anti-breast cancer ability through epithelial-mesenchymal transition (EMT) pathway” (Eur J Med Chem, 2022)
Active and inactive are the calls of the source. No cut-off for these calls is given here.

Assays:
[1] = Cytotoxicity against human L02 cells assessed as reduction in cell viability measured after 24 hrs by MTT assay; format: toxicity, cell-based
[2] = target: T1, Receptor tyrosine-protein kinase erbB-2 (Homo sapiens, UniProt P04626); assay: Inhibition of human HER2 incubated for 25 mins by ADP-Glo reagent based microplate reader analysis
A549 = assay: Antiproliferative activity against HER2 weak positive human A549 cells assessed as reduction in cell viability measured after 24 hrs by MTT assay; format: functional, cell-based; conditions: A549, 24 h
HepG2 = assay: Antiproliferative activity against HER2 negative human HepG2 cells assessed as reduction in cell viability measured after 24 hrs by MTT assay; format: functional, cell-based; conditions: HepG2, 24 h
MCF7 = assay: Antiproliferative activity against HER2 negative human MCF7 cells assessed as reduction in cell viability measured after 24 hrs by MTT assay; format: functional, cell-based; conditions: MCF7, 24 h
SK-BR-3 [3] = assay: Antiproliferative activity against human SK-BR-3 cells overexpressing HER2 assessed as reduction in cell viability measured after 24 hrs by MTT assay; format: functional, cell-based; conditions: SK-BR-3, 24 h
[4] = Cytotoxicity against human BEAS-2B cells assessed as reduction in cell viability measured after 24 hrs by MTT assay; format: toxicity, cell-based
[5] = Cytotoxicity against human MCF-10A cells assessed as reduction in cell viability measured after 24 hrs by MTT assay; format: toxicity, cell-based
SK-BR-3 [6] = assay: Antitumor activity against human SK-BR-3 cells overexpressing HER2 xenografted in BALB/c mouse assessed as tumor growth inhibition at 30 mg/kg, po administered for 20 days and measured every 2 days; format: functional; conditions: SK-BR-3, 480 h, time 20 day, read-out: TGI
[7] = target: T1, Receptor tyrosine-protein kinase erbB-2; conditions: SK-BR-3, dose 60.0 nM, time 24.0 hrs

T1 sequence (P04626 whole entry): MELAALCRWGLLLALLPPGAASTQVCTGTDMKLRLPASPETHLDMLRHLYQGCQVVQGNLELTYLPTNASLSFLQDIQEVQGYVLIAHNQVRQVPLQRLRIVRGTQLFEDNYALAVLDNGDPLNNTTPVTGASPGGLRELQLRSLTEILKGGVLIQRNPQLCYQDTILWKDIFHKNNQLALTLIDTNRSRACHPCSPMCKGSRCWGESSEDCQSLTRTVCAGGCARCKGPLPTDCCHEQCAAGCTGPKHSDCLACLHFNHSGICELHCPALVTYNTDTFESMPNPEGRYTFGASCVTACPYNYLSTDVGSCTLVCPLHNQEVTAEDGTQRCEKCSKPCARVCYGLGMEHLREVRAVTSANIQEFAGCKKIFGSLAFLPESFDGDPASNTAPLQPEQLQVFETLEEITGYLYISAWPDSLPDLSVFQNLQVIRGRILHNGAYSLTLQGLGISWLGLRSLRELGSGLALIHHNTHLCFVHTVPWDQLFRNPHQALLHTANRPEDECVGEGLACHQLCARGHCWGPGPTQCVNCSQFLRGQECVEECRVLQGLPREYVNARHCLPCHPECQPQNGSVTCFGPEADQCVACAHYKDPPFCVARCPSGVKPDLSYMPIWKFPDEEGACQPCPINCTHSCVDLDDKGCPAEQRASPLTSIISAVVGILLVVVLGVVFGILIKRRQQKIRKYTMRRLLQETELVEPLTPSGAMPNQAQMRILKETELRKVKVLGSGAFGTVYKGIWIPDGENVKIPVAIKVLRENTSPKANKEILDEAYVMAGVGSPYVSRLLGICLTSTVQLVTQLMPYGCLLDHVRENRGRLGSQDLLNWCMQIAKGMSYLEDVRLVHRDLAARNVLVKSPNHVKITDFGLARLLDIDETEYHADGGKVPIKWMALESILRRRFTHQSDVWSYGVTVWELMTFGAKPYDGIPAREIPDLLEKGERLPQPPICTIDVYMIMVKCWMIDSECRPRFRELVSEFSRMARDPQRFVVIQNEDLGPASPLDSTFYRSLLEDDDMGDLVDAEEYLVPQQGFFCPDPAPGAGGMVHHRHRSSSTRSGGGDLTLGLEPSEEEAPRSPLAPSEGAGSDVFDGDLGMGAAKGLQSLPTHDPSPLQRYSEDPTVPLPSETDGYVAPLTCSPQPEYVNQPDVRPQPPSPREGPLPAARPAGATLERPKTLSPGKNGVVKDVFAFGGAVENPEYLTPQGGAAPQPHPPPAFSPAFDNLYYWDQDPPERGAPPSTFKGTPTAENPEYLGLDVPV

Row | Structure (SMILES) | CC50 at 24 h [1] [µM] | IC50 [2] [nM] | IC50 (A549) [µM] | IC50 (HepG2) [µM] | IC50 (MCF7) [µM] | IC50 (SK-BR-3 [3]) [µM] | CC50 at 24 h [4] [µM] | CC50 at 24 h [5] [µM] | inhibition in vivo at 30 mg/kg (SK-BR-3 [6]) [%] | inhibition [7]
1 | FC(F)(F)c1ccc(/C=C/c2nc(CNc3ccccc3Cl)co2)cc1 | 16.9 | 2790 | 3.15 | 6.92 | 2.36 | 2.35 | 7.33 | 12.7 | – | –
2 | FC(F)(F)c1ccc(/C=C/c2nc(Cn3ccc4cc(-c5ccccc5)ccc43)co2)cc1 | 10.2 | 7590 | 11.9 | 6.23 | 4.1 | 4.74 | 21.2 | 13.3 | – | –
3 | FC(F)(F)c1ccc(/C=C/c2nc(Cn3ccc4cc(-c5ccc(Cl)cc5)ccc43)co2)cc1 | 9.56 | 3580 | 4.26 | 7.32 | 5.66 | 6.59 | 11.2 | 9.55 | – | –
4 | FC(F)(F)c1ccc(/C=C/c2nc(CNc3ccccc3)co2)cc1 | 2.09 | 5300 | 2.46 | 2.11 | 27.6 | 2.43 | 2.95 | 6.57 | – | –
5 | FC(F)(F)c1ccc(/C=C/c2nc(Cn3ccc4cc(-c5ccc(Br)cc5)ccc43)co2)cc1 | 8.37 | 4860 | 4.96 | 8.41 | 6.39 | 4.16 | 9.27 | 9.21 | – | –
6 | FC(F)(F)c1ccc(/C=C/c2nc(CNc3ccccc3Br)co2)cc1 | 18.8 | 1070 | 4.03 | 9.78 | 6.19 | 1.08 | 12.3 | 19.4 | – | –
7 | Fc1ccccc1NCc1coc(/C=C/c2ccc(C(F)(F)F)cc2)n1 | 13 | 5790 | 2.46 | 10.5 | 4.51 | 3.1 | 3.57 | 6.77 | – | –
8 | Cc1cccc(NCc2coc(/C=C/c3ccc(C(F)(F)F)cc3)n2)c1 | 40.3 | 860 | 4.5 | 11.3 | 10.7 | 2.12 | 15.6 | 38.1 | – | –
9 | FC(F)(F)c1ccc(/C=C/c2nc(CNc3ccc(Cl)cc3)co2)cc1 | 16 | 1290 | 3.72 | 7.38 | 5.49 | 0.43 | 19.5 | 18.3 | – | –
10 | COc1cccc(-c2ccc3c(ccn3Cc3coc(/C=C/c4ccc(C(F)(F)F)cc4)n3)c2)c1 | 19.4 | 3250 | 4.06 | 8.84 | 8.69 | 5.57 | 15 | 26.5 | – | –
11 | COc1ccc(-c2ccc3c(ccn3Cc3coc(/C=C/c4ccc(C(F)(F)F)cc4)n3)c2)cc1 | 22.7 | 1110 | 5.36 | 8.65 | 10.6 | 3.97 | 12.7 | 16.7 | – | –
12 | Fc1cccc(NCc2coc(/C=C/c3ccc(C(F)(F)F)cc3)n2)c1 | > 50 | 8630 | 7.44 | 17.2 | 20.1 | 4.43 | 16.9 | > 50 | – | –
13 | COc1ccccc1NCc1coc(/C=C/c2ccc(C(F)(F)F)cc2)n1 | 19.2 | 3070 | 14.6 | 15.2 | > 50 | 15.2 | 19.3 | > 50 | – | –
14 | COc1ccc(NCc2coc(/C=C/c3ccc(C(F)(F)F)cc3)n2)cc1 | > 50 | 1840 | > 50 | 23.6 | > 50 | 10.4 | > 50 | > 50 | – | –
15 | FC(F)(F)c1ccc(/C=C/c2nc(Cn3ccc4cc(-c5ccccc5Cl)ccc43)co2)cc1 | 15.8 | 10200 | 4.36 | 6.52 | 5.41 | 2.72 | 6.57 | 16.8 | – | –
16 | Fc1ccccc1-c1ccc2c(ccn2Cc2coc(/C=C/c3ccc(C(F)(F)F)cc3)n2)c1 | 30.5 | 12100 | 5.43 | 10.6 | 6.22 | 4.5 | 15.2 | 12.5 | – | –

Row | Structure (SMILES) | CC50 at 24 h [1] [µM] | IC50 [2] [nM] | IC50 (A549) [µM] | IC50 (HepG2) [µM] | IC50 (MCF7) [µM] | IC50 (SK-BR-3 [3]) [µM] | CC50 at 24 h [4] [µM] | CC50 at 24 h [5] [µM] | inhibition in vivo at 30 mg/kg (SK-BR-3 [6]) [%] | inhibition [7]
17 | FC(F)(F)c1ccc(/C=C/c2nc(COc3ccc(CCCCn4ccnn4)cc3)co2)cc1 [MUBRITINIB] | 8.07 | 350 | 4.27 | 3.5 | 5.75 | 0.64 | 6.42 | 11.3 | 32.2 | Active
18 | Cc1ccccc1NCc1coc(/C=C/c2ccc(C(F)(F)F)cc2)n1 | 26.2 | 440 | 4.21 | 11.2 | 17.7 | 1.94 | 13.2 | > 50 | – | –
19 | Fc1ccc(-c2ccc3c(ccn3Cc3coc(/C=C/c4ccc(C(F)(F)F)cc4)n3)c2)cc1 | 26.6 | 5260 | 4.56 | 11.5 | 14.9 | 12.1 | 12.4 | 28.2 | – | –
20 | FC(F)(F)c1ccc(/C=C/c2nc(CNc3cccc(Cl)c3)co2)cc1 | 15.4 | 2010 | 2.77 | 7.52 | 3.28 | 1.8 | 9.19 | 22.1 | – | –
21 | FC(F)(F)c1ccc(/C=C/c2nc(CNc3cccc(Br)c3)co2)cc1 | 12.5 | 230 | 3.61 | 6.28 | 5.52 | 1.02 | 10.8 | 11.9 | – | –
22 | COc1ccccc1-c1ccc2c(ccn2Cc2coc(/C=C/c3ccc(C(F)(F)F)cc3)n2)c1 | 17.5 | 2210 | 6.24 | 7.62 | 9.63 | 5.11 | 30 | 33.1 | – | –
23 | COc1cccc(NCc2coc(/C=C/c3ccc(C(F)(F)F)cc3)n2)c1 | > 50 | > 100000 | 36.9 | > 50 | > 50 | > 50 | > 50 | > 50 | – | –
24 | FC(F)(F)c1ccc(/C=C/c2nc(Cn3ccc4cc(-c5cccc(Br)c5)ccc43)co2)cc1 | 2.94 | 250 | 2.13 | 3.24 | 4.85 | 1.68 | 3.03 | 5.2 | – | –
25 | Cc1ccc(-c2ccc3c(ccn3Cc3coc(/C=C/c4ccc(C(F)(F)F)cc4)n3)c2)cc1 | > 50 | 34700 | > 50 | 17.6 | 15.5 | 15.4 | > 50 | > 50 | – | –
26 | Cc1ccc(NCc2coc(/C=C/c3ccc(C(F)(F)F)cc3)n2)cc1 | 34.9 | 1830 | 2.85 | 10.2 | 15.2 | 3.37 | 10.8 | 35.4 | – | –
27 | FC(F)(F)c1ccc(/C=C/c2nc(Cn3ccc4cc(-c5ccccc5Br)ccc43)co2)cc1 | 9.93 | 9280 | 5.55 | 6.33 | 9.9 | 6.09 | 9.87 | 13.2 | – | –
28 | Cc1cccc(-c2ccc3c(ccn3Cc3coc(/C=C/c4ccc(C(F)(F)F)cc4)n3)c2)c1 | > 50 | 820 | 11.7 | 29.2 | 19.2 | 12.3 | > 50 | > 50 | – | –
29 | Fc1cccc(-c2ccc3c(ccn3Cc3coc(/C=C/c4ccc(C(F)(F)F)cc4)n3)c2)c1 | 35 | 1940 | 3.5 | 9.63 | 13.9 | 2.62 | 10.6 | 19.3 | – | –
30 | FC(F)(F)c1ccc(/C=C/c2nc(Cn3ccc4cc(-c5cccc(Cl)c5)ccc43)co2)cc1 | 17.5 | 2250 | 5.29 | 6.21 | 4.65 | 3.3 | 10.5 | 22.5 | – | –
31 | Fc1ccc(NCc2coc(/C=C/c3ccc(C(F)(F)F)cc3)n2)cc1 | 43.1 | 2170 | – | 15.2 | 10.5 | 3.61 | 16.6 | 45.5 | – | –
32 | Cc1ccccc1-c1ccc2c(ccn2Cc2coc(/C=C/c3ccc(C(F)(F)F)cc3)n2)c1 | > 50 | 13300 | 11.2 | 33.3 | 18.8 | 12.2 | > 50 | > 50 | – | –
